According to ChEMBL document CHEMBL4177611, “Discovery of aminocyclohexene analogues as selective and orally bioavailable hNav1.7 inhibitors for analgesia” (Bioorg Med Chem Lett, 2017):

Tests used:
[1] = Volume of distribution at steady state in Sprague-Dawley rat administered as single iv bolus by LC-MS/MS analysis; type: ADME, organism-based; settings: in vivo, read-out: Vdss
[2] = Clearance in Sprague-Dawley rat at 3 mg/kg administered as single iv bolus by LC-MS/MS analysis; type: ADME, organism-based; settings: in vivo
[3] = Fraction unbound in human plasma at 2 uM after 4 hrs by LC-MS/MS analysis; type: ADME, cell-free
[4] = Intrinsic clearance in rat liver microsomes at 1 uM after 60 mins in presence of NADPH by LC-MS/MS analysis; type: ADME, microsome; settings: read-out: CLH
[5] = Unbound plasma concentration in Sprague-Dawley rat spinal nerve ligation model at 30 mg/kg administered as single dose via oral gavage measured after 4 hrs by LC-MS/MS analysis; type: ADME, organism-based; settings: in vivo
physchem [6] = settings: buffer, pH 7.4
[7] = Drug metabolism in Sprague-Dawley rat dorsal root ganglion assessed as 4-(((1R,6R)-6-amino-2-(4-fluorophenyl)cyclohex-2-enyl)methoxy)-5-chloro-2-fluoro-N-(thiazol-4-yl)benzenesulfonamide formation at 100 mg/kg, ig measured after 1.5 hrs by LC-MS/MS analysis; type: ADME, organism-based; settings: in vivo, po
Cytochrome P450 2D6 = Cytochrome P450 2D6 (Homo sapiens, UniProt P10635)
[8] = Unbound plasma concentration in Sprague-Dawley rat spinal nerve ligation model at 100 mg/kg administered as single dose via oral gavage measured after 4 hrs by LC-MS/MS analysis; type: ADME, organism-based; settings: in vivo
[9] = Plasma concentration in Sprague-Dawley rat spinal nerve ligation model at 100 mg/kg administered as single dose via oral gavage measured after 1 hr by LC-MS/MS analysis; type: ADME, organism-based
[10] = molecular target: Voltage-gated inwardly rectifying potassium channel KCNH2 (Homo sapiens, UniProt Q12809)
Voltage-gated inwardly rectifying potassium channel KCNH2, sequence (Q12809 whole entry): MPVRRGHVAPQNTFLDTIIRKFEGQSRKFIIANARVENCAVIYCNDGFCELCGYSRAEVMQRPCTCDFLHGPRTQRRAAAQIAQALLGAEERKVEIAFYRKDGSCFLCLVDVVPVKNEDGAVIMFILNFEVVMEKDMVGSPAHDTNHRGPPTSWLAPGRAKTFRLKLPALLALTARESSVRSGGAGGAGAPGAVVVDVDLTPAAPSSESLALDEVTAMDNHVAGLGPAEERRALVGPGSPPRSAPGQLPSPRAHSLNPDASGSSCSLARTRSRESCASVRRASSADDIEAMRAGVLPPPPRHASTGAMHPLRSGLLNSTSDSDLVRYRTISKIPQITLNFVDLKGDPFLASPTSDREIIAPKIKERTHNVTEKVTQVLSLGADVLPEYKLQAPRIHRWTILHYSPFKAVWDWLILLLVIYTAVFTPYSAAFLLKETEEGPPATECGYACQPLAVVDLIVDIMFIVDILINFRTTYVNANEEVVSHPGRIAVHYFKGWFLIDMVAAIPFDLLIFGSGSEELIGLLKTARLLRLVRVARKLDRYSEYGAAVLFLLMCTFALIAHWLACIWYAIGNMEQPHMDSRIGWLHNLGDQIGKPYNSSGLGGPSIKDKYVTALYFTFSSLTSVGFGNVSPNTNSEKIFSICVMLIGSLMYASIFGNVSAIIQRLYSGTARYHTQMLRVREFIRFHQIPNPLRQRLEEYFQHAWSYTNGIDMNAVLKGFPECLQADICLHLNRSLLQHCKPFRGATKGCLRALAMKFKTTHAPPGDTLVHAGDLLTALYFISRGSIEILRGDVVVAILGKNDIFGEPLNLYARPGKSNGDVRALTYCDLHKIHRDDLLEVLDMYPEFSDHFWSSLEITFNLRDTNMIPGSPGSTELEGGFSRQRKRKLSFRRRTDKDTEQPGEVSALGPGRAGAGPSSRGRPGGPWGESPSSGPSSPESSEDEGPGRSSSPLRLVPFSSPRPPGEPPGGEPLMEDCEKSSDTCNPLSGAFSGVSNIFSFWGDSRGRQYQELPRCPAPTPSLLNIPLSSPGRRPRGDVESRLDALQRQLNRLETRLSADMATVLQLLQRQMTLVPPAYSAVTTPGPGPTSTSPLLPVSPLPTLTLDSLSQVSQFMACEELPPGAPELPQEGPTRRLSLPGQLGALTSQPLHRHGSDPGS

Cytochrome P450 3A4 = Cytochrome P450 3A4 (Homo sapiens, UniProt P08684)
Cytochrome P450 3A4, sequence (P08684 whole entry): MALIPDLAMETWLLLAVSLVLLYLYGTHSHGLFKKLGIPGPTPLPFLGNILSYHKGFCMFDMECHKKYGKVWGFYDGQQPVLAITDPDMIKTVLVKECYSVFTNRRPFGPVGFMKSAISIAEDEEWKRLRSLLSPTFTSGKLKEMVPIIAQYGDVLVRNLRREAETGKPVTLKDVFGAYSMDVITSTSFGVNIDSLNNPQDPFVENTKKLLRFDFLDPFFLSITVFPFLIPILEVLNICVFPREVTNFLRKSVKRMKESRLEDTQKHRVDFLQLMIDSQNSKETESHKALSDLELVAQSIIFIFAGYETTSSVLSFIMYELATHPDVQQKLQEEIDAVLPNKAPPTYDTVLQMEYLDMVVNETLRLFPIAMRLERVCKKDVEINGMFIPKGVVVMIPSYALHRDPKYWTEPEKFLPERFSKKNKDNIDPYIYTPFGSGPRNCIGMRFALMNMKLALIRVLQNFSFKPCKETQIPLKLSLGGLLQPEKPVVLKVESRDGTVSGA

[11] = Plasma concentration in Sprague-Dawley rat spinal nerve ligation model at 100 mg/kg administered as single dose via oral gavage measured after 4 hrs by LC-MS/MS analysis; type: ADME, organism-based
Cytochrome P450 2C19 = Cytochrome P450 2C19 (Homo sapiens, UniProt P33261)
Cytochrome P450 2C19, sequence (P33261 whole entry): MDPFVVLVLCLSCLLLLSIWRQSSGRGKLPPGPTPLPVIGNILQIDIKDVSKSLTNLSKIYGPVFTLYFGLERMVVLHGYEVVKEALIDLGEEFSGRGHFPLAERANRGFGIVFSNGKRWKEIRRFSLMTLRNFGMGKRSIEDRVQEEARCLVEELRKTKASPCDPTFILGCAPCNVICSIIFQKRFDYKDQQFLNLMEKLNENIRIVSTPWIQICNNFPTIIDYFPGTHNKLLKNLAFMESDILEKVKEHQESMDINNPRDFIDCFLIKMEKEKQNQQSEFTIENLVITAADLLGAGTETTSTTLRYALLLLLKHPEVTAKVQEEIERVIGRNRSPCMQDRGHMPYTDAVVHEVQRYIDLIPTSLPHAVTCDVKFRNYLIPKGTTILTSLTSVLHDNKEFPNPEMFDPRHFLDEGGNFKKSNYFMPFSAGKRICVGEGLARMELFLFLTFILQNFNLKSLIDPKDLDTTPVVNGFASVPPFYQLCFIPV

[12] = Oral bioavailability in Sprague-Dawley rat at 10 mg/kg administered as single dose via gavage by LC-MS/MS analysis; type: ADME, organism-based; settings: in vivo
[13] = Fraction unbound in rat plasma at 2 uM after 4 hrs by LC-MS/MS analysis; type: ADME, cell-free
[14] = Unbound plasma concentration in Sprague-Dawley rat spinal nerve ligation model at 30 mg/kg administered as single dose via oral gavage measured after 2 hrs by LC-MS/MS analysis; type: ADME, organism-based; settings: in vivo
Rattus norvegicus = experiment: Unbound AUC (0 to last) in Sprague-Dawley rat at 10 mg/kg administered as single dose via oral gavage by LC-MS/MS analysis; type: ADME, organism-based; settings: in vivo
[15] = Metabolic stability in dog liver microsomes assessed as parent compound remaining at 10 uM measured up to 60 mins in presence of NADPH by LC-MS analysis; type: ADME, Canis lupus familiaris, microsome; settings: read-out: Stability
[16] = Dissociation constant, pKa of the compound; type: physicochemical
[17] = molecular target: Sodium channel protein type 9 subunit alpha (Homo sapiens, UniProt Q15858); experiment: Inhibition of human Nav1.7 expressed in CHO-K1 cells at -120 mV holding potential incubated over 5 mins measured at 15 secs interval by Qpatch clamp assay; type: cell-based
Sodium channel protein type 9 subunit alpha, sequence (Q15858 whole entry): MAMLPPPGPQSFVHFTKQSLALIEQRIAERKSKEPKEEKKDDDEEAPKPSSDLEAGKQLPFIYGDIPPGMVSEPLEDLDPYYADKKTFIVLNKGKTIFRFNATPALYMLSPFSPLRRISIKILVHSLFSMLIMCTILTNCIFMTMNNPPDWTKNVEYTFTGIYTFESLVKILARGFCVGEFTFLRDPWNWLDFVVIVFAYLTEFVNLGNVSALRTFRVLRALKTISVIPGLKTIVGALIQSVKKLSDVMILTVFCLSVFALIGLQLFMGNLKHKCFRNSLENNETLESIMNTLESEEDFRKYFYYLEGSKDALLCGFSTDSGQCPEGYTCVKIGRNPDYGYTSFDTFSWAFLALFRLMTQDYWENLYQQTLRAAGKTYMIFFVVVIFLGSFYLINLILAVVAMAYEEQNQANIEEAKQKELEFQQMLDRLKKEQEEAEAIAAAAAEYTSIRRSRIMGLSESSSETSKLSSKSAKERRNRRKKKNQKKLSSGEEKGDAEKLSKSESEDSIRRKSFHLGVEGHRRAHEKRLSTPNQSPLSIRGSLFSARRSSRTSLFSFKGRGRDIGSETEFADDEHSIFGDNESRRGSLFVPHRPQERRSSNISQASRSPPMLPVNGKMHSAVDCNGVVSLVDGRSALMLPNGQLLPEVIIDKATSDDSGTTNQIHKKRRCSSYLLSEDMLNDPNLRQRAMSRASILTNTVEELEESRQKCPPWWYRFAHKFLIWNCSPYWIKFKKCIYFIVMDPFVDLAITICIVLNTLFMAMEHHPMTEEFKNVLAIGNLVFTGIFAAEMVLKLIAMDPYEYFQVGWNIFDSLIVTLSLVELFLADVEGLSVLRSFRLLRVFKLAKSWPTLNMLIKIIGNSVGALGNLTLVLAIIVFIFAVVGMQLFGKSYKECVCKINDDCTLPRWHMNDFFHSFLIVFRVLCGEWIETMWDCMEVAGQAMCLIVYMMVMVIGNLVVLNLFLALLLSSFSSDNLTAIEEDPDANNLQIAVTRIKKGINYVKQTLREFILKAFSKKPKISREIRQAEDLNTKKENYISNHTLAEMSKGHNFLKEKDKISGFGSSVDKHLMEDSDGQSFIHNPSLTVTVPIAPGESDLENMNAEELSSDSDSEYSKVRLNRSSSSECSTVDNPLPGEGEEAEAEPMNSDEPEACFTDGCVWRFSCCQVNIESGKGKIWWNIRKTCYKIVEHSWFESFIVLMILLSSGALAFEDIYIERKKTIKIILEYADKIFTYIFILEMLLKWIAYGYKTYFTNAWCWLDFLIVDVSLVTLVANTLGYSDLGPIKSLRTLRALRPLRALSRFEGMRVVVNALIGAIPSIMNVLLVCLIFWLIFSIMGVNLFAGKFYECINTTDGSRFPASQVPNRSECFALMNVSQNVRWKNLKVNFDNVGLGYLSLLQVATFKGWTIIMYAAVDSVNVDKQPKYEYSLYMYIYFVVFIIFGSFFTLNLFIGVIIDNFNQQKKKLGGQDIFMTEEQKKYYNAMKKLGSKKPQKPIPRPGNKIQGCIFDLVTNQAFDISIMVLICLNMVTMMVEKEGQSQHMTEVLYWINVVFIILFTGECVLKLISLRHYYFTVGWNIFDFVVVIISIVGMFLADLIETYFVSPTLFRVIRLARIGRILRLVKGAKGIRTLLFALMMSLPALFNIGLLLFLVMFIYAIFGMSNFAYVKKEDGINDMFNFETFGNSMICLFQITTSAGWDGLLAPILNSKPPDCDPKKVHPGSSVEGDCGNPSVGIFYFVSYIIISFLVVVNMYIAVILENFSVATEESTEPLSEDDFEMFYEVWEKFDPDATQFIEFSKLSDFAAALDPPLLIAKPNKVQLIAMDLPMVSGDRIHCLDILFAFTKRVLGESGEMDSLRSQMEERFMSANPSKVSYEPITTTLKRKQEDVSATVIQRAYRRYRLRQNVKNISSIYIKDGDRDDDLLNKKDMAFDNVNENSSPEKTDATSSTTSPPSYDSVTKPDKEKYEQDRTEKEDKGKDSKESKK

[18] = Drug uptake in Sprague-Dawley rat dorsal root ganglion at 100 mg/kg, ig measured after 1.5 hrs by LC-MS/MS analysis; type: ADME, organism-based; settings: in vivo, po
Cytochrome P450 2C9 = Cytochrome P450 2C9 (Homo sapiens, UniProt P11712)
Cytochrome P450 2C9, sequence (P11712 whole entry): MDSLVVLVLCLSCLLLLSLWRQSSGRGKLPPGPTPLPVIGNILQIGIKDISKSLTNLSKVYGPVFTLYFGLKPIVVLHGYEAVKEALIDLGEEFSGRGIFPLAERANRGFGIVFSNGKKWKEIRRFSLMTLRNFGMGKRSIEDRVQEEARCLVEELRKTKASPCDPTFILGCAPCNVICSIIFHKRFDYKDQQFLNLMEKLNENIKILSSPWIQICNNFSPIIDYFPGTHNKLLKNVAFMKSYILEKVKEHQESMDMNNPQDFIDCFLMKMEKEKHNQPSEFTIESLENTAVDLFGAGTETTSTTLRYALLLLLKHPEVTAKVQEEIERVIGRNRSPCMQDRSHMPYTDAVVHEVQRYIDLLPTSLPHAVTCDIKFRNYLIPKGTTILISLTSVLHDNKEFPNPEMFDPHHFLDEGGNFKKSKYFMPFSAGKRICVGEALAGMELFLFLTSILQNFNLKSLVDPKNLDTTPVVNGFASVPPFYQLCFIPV

[19] = Cmax in Sprague-Dawley rat at 10 mg/kg administered as single dose via oral gavage by LC-MS/MS analysis; type: ADME, organism-based; set-up: dose 10 mg/kg, route oral; settings: in vivo
[20] = Tmax in Sprague-Dawley rat at 10 mg/kg administered as single dose via oral gavage by LC-MS/MS analysis; type: ADME, organism-based; settings: in vivo
[21] = Unbound plasma concentration in Sprague-Dawley rat spinal nerve ligation model at 100 mg/kg administered as single dose via oral gavage measured after 2 hrs by LC-MS/MS analysis; type: ADME, organism-based; settings: in vivo
[22] = Plasma concentration in Sprague-Dawley rat spinal nerve ligation model at 30 mg/kg administered as single dose via oral gavage measured after 2 hrs by LC-MS/MS analysis; type: ADME, organism-based
[23] = Unbound plasma concentration in Sprague-Dawley rat spinal nerve ligation model at 30 mg/kg administered as single dose via oral gavage measured after 1 hr by LC-MS/MS analysis; type: ADME, organism-based; settings: in vivo
[24] = Plasma concentration in Sprague-Dawley rat spinal nerve ligation model at 30 mg/kg administered as single dose via oral gavage measured after 4 hrs by LC-MS/MS analysis; type: ADME, organism-based
physchem [25] = settings: buffer, pH 7.4; remark: listed apart in the source
Cytochrome P450 1A2 = molecular target: T1, Cytochrome P450 1A2 (Homo sapiens, UniProt P05177)
T1 sequence (P05177 whole entry): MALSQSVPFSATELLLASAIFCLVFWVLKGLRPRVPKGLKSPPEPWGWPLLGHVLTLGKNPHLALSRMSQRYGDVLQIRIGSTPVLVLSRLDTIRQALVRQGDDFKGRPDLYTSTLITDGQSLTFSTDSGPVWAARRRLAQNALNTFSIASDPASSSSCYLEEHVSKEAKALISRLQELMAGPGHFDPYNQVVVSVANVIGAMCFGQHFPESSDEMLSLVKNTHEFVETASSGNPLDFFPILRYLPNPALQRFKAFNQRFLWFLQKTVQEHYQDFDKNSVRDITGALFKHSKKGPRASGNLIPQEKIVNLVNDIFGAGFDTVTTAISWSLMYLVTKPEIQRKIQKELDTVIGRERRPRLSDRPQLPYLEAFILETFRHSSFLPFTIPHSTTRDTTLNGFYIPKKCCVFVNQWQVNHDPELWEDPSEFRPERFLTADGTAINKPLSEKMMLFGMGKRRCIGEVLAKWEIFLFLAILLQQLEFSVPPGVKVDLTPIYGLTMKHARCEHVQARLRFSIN

[26] = Metabolic stability in human liver microsomes assessed as parent compound remaining at 10 uM measured up to 60 mins in presence of NADPH by LC-MS analysis; type: ADME, microsome; settings: read-out: Stability
[27] = Drug metabolism in human liver microsomes assessed as oxygenation by measuring M3 metabolite formation at 10 uM measured up to 60 mins in presence of NADPH by LC-MS analysis relative to total metabolite peak area; type: ADME, microsome; settings: 1 h
[28] = Half life in Sprague-Dawley rat at 10 mg/kg administered as single dose via oral gavage by LC-MS/MS analysis; type: ADME, organism-based; settings: in vivo
[29] = Metabolic stability in rat liver microsomes assessed as parent compound remaining at 10 uM measured up to 60 mins in presence of NADPH by LC-MS analysis; type: ADME, microsome; settings: read-out: Stability

CCN[C@@H]1CCC=C(c2ccc(F)cc2)[C@H]1COc1cc(F)c(S(=O)(=O)Nc2cscn2)cc1Cl.Cl
Vd [1]: 4.65 L/kg | clearance [2]: 37 mL/min/kg | fraction unbound at 4 h, 2 µM [3]: 0.015 | CLint scaled at 1 µM [4]: 137 mL/min/kg | Cp(f) [5]: 54 nM | solubility thermodynamic (physchem [6]): 26.5 µM | Drug metabolism [7]: 0.5 µM/g | IC50 (Cytochrome P450 2D6): 22 µM | Cp(f) [8]: 163 nM | concentration at 1 h [9]: 8480 nM | IC50 [10]: 4.4 µM | IC50 (Cytochrome P450 3A4): 43.4 µM | concentration at 4 h [11]: 4640 nM | IC50 (Cytochrome P450 2C19): > 50 µM | bioavailability [12]: 37% | fraction unbound at 4 h, 2 µM [13]: 0.035 | Cp(f) [14]: 75 nM | fAUClast (Rattus norvegicus): 0.106 µM·h | remaining at 1 h, 10 µM [15]: 81.2% | pKa [16]: 6.34 to 9.35 | IC50 [17]: 0.034 µM | Drug uptake [18]: 2.6 µM/g | IC50 (Cytochrome P450 2C9): 5.7 µM | Cmax [19]: 620 nM | Tmax [20]: 1.67 h | Cp(f) [21]: 262 nM | concentration at 2 h [22]: 2160 nM | Cp(f) [23]: 70 nM | concentration at 4 h [24]: 1530 nM | logD (physchem [25]): 1.79 | IC50 (Cytochrome P450 1A2): > 50 µM | remaining at 1 h, 10 µM [26]: 37.6% | Drug metabolism [27]: Metabolite_Detected | half-life [28]: 2.56 h | remaining at 1 h, 10 µM [29]: 49.7%
